Laboratory results taken from patent US20070244153A1 (priority 2004, published 2007).

Tests used:
Format in all cases: in vivo
[1] = test system: Plasmopara viticola; assay: Controlling effect against grape downy mildew (leaf disk immersion, 250 ppm); conditions: grape leaf disk immersed 3 hours, 10th day after inoculation, untreated 60 to 70%
Protocol: The developed leaf of grape seedling (breed: Cabernet Sauvignon) grown in 1/2000 a pot was cut and prepared a leaf disk having a diameter of 32 mm. A solution of the compound in acetone was diluted with water to 250 ppm, and the leaf disk was immersed for 3 hours. The disk was taken from the agent solution, subjected to air-drying, and then inoculated by spray with a zoosporangia suspension of Plasmopara viticola. The test disk was incubated at 18° C. for 12 hours in a light-dark light cycle. On the 10th day after inoculation the infected area rate for the leaf disk was examined. Evaluation was carried out by the following criteria. The infected area rate for the untreated groups in the examination was 60 to 70%.

[2] = test system: Pseudoperonospora cubensis; assay: Controlling effect against cucumber downy mildew (spray on cucumber seedlings, 250 ppm); conditions: 250 ppm spray, cucumber seedling 1-leaf stage, 7th day after inoculation; untreated 60 to 80%
Protocol: A solution of the compound in acetone was diluted with water to 250 ppm, and the solution was sprayed to the cucumber seedling (breed: Sagamihangbak, two per plastic pot having a diameter of 7.5 cm) at 1-leaf stage in an amount of 10 mL of the compound/pot. After air-drying, the pot was transferred to a moist chamber provided in the greenhouse, and inoculated by spray with a zoosporic suspension of Pseudoperonospora cubensis. On the 7th day after inoculation the infected area rate for the leaves was examined. Evaluation was carried out by the following criteria.
The infected area rate for untreated groups in the examination was 60 to 80%.

[3] = test system: Phytophthora infestans; conditions: 250 ppm spray, tomato seedling 4-leaf stage, 4th day after inoculation; untreated not less than 60%

Row | Structure (SMILES) | Effect: controlling effect against grape downy mildew (infected area rate) [1] | Effect: controlling effect against cucumber downy mildew (infected area rate) [2] | Effect: controlling effect against tomato late blight (infected area rate) [3]
1 | CC(C)[C@H](NC(=O)OCc1ccccc1)C(=O)NC[C@@H](NC(=O)c1cc2ccccc2o1)C(C)C [Compound No. 678, N-[3-methyl-2-(S)-[(benzofuran-2-carbonyl)amino]butyl]2-(S)-[(benzyloxycarbonyl)amino]-3-methylbutyramide] | B (the infected area rate of 5% to less than 50%) | A (the infected area rate of less than 5%) | B (Infected area rate of 5% to less than 50%)
2 | Cc1ccccc1C(=O)NC[C@@H](NC(=O)[C@@H](NC(=O)OC(C)C)C(C)C)C(C)C [Compound No. 143, N-[2-methyl-1-(S)-[[(2-methylbenzoyl)amino]methyl]propyl]3-methyl-2-(S)-[(1-methylethyloxycarbonyl)amino]butyramide] | – | B (the infected area rate of 5% to less than 50%) | A (Infected area rate of less than 5%)
3 | CCOC(=O)N[C@H](C(=O)N[C@H](CNC(=O)c1cc2ccccc2o1)C(C)C)C(C)C [Compound No. 772, N-[2-methyl-1-(S)-[[(benzofuran-2-carbonyl)amino]methyl]propyl][3-methyl-2-(S)-[N-(ethyloxycarbonyl)amino]]butyramide] | A (the infected area rate of less than 5%) | A (the infected area rate of less than 5%) | A (Infected area rate of less than 5%)
4 | Cc1ccc(C(=O)NC[C@@H](NC(=O)C(NC(=O)OC(C)(C)C)C2CCOC2)C(C)C)cc1 (mixture of isomers) [Compound No. 69, N-[2-methyl-1-(S)-[[(4-methylbenzoyl)amino]methyl]propyl]2-(RS)-[(1,1-dimethylethyloxycarbonyl)amino]-2-(tetrahydrofuran-3-yl)acetamide] | B (the infected area rate of 5% to less than 50%) | A (the infected area rate of less than 5%) | A (Infected area rate of less than 5%)
5 | CC(C)OC(=O)N[C@H](C(=O)NC[C@@H](NC(=O)c1cc2ccccc2o1)C(C)C)C(C)C [Compound No. 675, N-[[2-(S)-[(benzofuran-2-carbonyl)amino]-3-methyl]butyl][2-(S)-[(1-methylethyloxycarbonyl)amino]-3-methyl]butyramide] | – | B (the infected area rate of 5% to less than 50%) | A (Infected area rate of less than 5%)
6 | CCOC(=O)N[C@H](C(=O)N[C@H](CNC(=O)c1cc2ccccc2o1)C(C)(C)C)C(C)C [Compound No. 714, N-[1-(S)-[[(benzofuran-2-carbonyl)amino]methyl)-2,2-dimethylpropyl][3-methyl-2-(S)-[N-(ethyloxycarbonyl)amino]]butyramide] | A (the infected area rate of less than 5%) | A (the infected area rate of less than 5%) | A (Infected area rate of less than 5%)
7 | CC(C)[C@H](NC(=O)OCC1CCCO1)C(=O)N[C@H](CNC(=O)c1cc2ccccc2o1)C(C)C (stereo partly drawn) [Compound No. 786, N-[1-(S)-[[(benzofuran-2-carbonyl)amino]methyl]-2-methylpropyl]3-methyl-2-(S)-[[(tetrahydrofuran-2-methyl)oxycarbonyl]amino]butyramide] | – | A (the infected area rate of less than 5%) | A (Infected area rate of less than 5%)
8 | CCSC(=O)N[C@H](C(=O)N[C@H](CNC(=O)c1cc2ccccc2o1)C(C)C)C(C)C [Compound No. 793, N-[1-(S)-[[(benzofuran-2-carbonyl)amino]methyl]-2-methylpropyl][3-methyl-2-(S)-(ethylthiocarbonylamino)]butyramide] | A (the infected area rate of less than 5%) | A (the infected area rate of less than 5%) | A (Infected area rate of less than 5%)
9 | CC[C@H](C)[C@@H](CNC(=O)c1ccc(C)cc1)NC(=O)[C@@H](NC(=O)OC)C(C)C [Compound No. 306, N-[2-(S)-methyl-1-(S)-[[(4-methylbenzoyl)amino]methyl]butyl]3-methyl-2-(S)-[(methyloxycarbonyl)amino]butyramide] | A (the infected area rate of less than 5%) | A (the infected area rate of less than 5%) | A (Infected area rate of less than 5%)
10 | CCC[C@H](NC(=O)OC(C)(C)C)C(=O)N[C@H](CNC(=O)c1ccc(C)cc1)C(C)C [compound 40, N-[2-methyl-1-(S)-[[(4-methylbenzoyl)amino]methyl]propyl]2-(S)-[(1,1-dimethylethyloxycarbonyl)amino]valeramide] | A (the infected area rate of less than 5%) | A (the infected area rate of less than 5%) | A (Infected area rate of less than 5%)
11 | Cc1ccc(C(=O)N[C@@H](CNC(=O)[C@@H](NC(=O)OCc2ccccc2)C(C)C)C(C)C)cc1 [Compound No. 276, N-[3-methyl-2-(R)-[(4-methylbenzoyl)amino]butyl]2-(S)-[(benzyloxycarbonyl)amino]-3-methylbutyramide] | – | – | B (Infected area rate of 5% to less than 50%)
12 | CC(CNC(=O)c1cc2ccccc2o1)NC(=O)[C@@H](NC(=O)OC(C)(C)C)C(C)C (mixture of isomers) [Compound No. 652, N-[2-(RS)-[[(benzofuran-2-carbonyl)amino]-1-methyl]ethyl][3-methyl-2-(S)-[N-(1,1-dimethylethyloxycarbonyl)amino]]butyramide] | B (the infected area rate of 5% to less than 50%) | A (the infected area rate of less than 5%) | A (Infected area rate of less than 5%)
13 | CC(C)OC(=O)N[C@H](C(=O)N[C@H](CNC(=O)C1COc2ccccc2O1)C(C)C)C(C)C (mixture of isomers) [Compound No. 899, N-[2-methyl-1-(S)-[[[(1,4-benzodioxane)-2-(RS)-carbonyl]amino]methyl]propyl][3-methyl-2-(S)-[N-(1-methylethyloxycarbonyl)amino]]butyramide] | B (the infected area rate of 5% to less than 50%) | A (the infected area rate of less than 5%) | A (Infected area rate of less than 5%)
14 | Cc1ccc(C(=O)NCC(NC(=O)[C@@H](NC(=O)OC(C)C)C(C)C)C(C)C)cc1 (mixture of isomers) [Compound No. 151, N-[2-methyl-1-(RS)-[[(4-methylbenzoyl)amino]methyl]propyl]3-methyl-2-(S)-[(1-methylethyloxycarbonyl)amino]butyramide] | – | B (the infected area rate of 5% to less than 50%) | A (Infected area rate of less than 5%)
15 | Cc1ccc(C(=O)N[C@H](CNC(=O)[C@@H](NC(=O)OCc2ccccc2)C(C)C)C(C)C)cc1 [Compound No. 281, N-[3-methyl-2-(S)-[(4-methylbenzoyl)amino]butyl]2-(S)-[(benzyloxycarbonyl)amino]-3-methylbutyramide] | – | B (the infected area rate of 5% to less than 50%) | B (Infected area rate of 5% to less than 50%)
16 | Cc1ccc(C(=O)NC[C@@H](NC(=O)[C@@H](NC(=O)OC(C)(C)C)c2ccccc2)C(C)C)cc1 [Compound No. 60, N-[2-methyl-1-(S)-[[(4-methylbenzoly)amino]methyl]propyl]2-(S)-[(1,1-dimethylethyloxycarbonyl)amino]-2-phenyl acetamide] | – | – | B (Infected area rate of 5% to less than 50%)
17 | Cc1ccc(C(=O)N[C@@H](CNC(=O)[C@@H](NC(=O)OCC(C)C)C(C)C)C(C)C)cc1 [Compound No. 274, N-[3-methyl-2-(R)-[(4-methylbenzoyl)amino]butyl]3-methyl-2-(S)-[(2-methylpropyloxycarbonyl)amino]butyramide] | – | B (the infected area rate of 5% to less than 50%) | A (Infected area rate of less than 5%)
